Test results: PubChem BioAssay (NCI)
“And” between values parts separate entries of the source, which are not always exact repeats. Identical values can stand only once.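 Compound exposure: 48 hours, 5 concentrations, 96-well plates. GI50 is the concentration that inhibits growth by half. Definition used: TGI = concentration required for complete inhibition of growth.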

Key:
Assay in all cases: DTP human tumour cell line panel, 48 h
786-0 renal = tested on: 786-0 renal
SN12C renal = tested on: SN12C renal
DU-145 prostate = tested on: DU-145 prostate
HT29 colon = tested on: HT29 colon
OVCAR-8 ovarian = tested on: OVCAR-8 ovarian
BT-549 breast = tested on: BT-549 breast
RXF 393 renal = tested on: RXF 393 renal
HCC-2998 colon = tested on: HCC-2998 colon
CAKI-1 renal = tested on: CAKI-1 renal
K-562 leukemia = tested on: K-562 leukemia

Cc1cc(N(CCNc2ccnc3cc(Cl)ccc23)Cc2ccco2)nc(Cl)n1
GI50 (786-0 renal): 1.57 µM | TGI (786-0 renal): 2.91 µM | GI50 (SN12C renal): 1.79 µM | TGI (SN12C renal): 3.44 µM | GI50 (DU-145 prostate): 1.99 µM | TGI (DU-145 prostate): 4.15 µM | GI50 (HT29 colon): 1.58 µM | TGI (HT29 colon): 3.24 µM | GI50 (OVCAR-8 ovarian): 2.06 µM | TGI (OVCAR-8 ovarian): 4.42 µM | GI50 (BT-549 breast): 1.69 µM | TGI (BT-549 breast): 3.14 µM | GI50 (RXF 393 renal): 1.27 µM | TGI (RXF 393 renal): 2.68 µM | GI50 (HCC-2998 colon): 1.72 µM | TGI (HCC-2998 colon): 3.3 µM

CN(C)c1ccc(Nc2cc(-c3cccc(OC(F)(F)F)c3)nc3ccc(N4CCCC4)cc23)cc1
GI50 (786-0 renal): 1.71 µM | TGI (786-0 renal): 3.24 µM | GI50 (SN12C renal): 1.78 µM | TGI (SN12C renal): 3.5 µM | GI50 (DU-145 prostate): 2.82 µM | TGI (DU-145 prostate): 7.91 µM | GI50 (HT29 colon): 2.18 µM | TGI (HT29 colon): 4.59 µM | GI50 (CAKI-1 renal): 1.75 µM | TGI (CAKI-1 renal): 3.57 µM | GI50 (BT-549 breast): 1.96 µM | TGI (BT-549 breast): 3.58 µM | GI50 (RXF 393 renal): 1.66 µM | TGI (RXF 393 renal): 3.47 µM | GI50 (HCC-2998 colon): 1.85 µM | TGI (HCC-2998 colon): 3.36 µM

COc1cc(OC)c(C2CC=Cc3c(OC)cc(OC)c(OC)c32)cc1OC (stereo not drawn)
TGI (786-0 renal): > 100 µM | TGI (SN12C renal): > 100 µM | TGI (HT29 colon): > 100 µM | TGI (CAKI-1 renal): > 100 µM | TGI (OVCAR-8 ovarian): > 100 µM | TGI (K-562 leukemia): > 100 µM | TGI (RXF 393 renal): > 100 µM | TGI (HCC-2998 colon): > 100 µM

CCCCCCCCCCCCCP(=O)(O)OCC
TGI (786-0 renal): > 100 µM | TGI (SN12C renal): > 100 µM | TGI (HT29 colon): > 100 µM | TGI (OVCAR-8 ovarian): > 100 µM | TGI (RXF 393 renal): > 100 µM | TGI (HCC-2998 colon): > 100 µM

NCCCNCCCCN(CCCN)/[N+]([O-])=N\O
TGI (786-0 renal): > 100 µM | TGI (SN12C renal): > 100 µM | TGI (HT29 colon): > 100 µM | TGI (CAKI-1 renal): > 100 µM | TGI (OVCAR-8 ovarian): > 100 µM | TGI (K-562 leukemia): > 100 µM | TGI (RXF 393 renal): > 100 µM | TGI (HCC-2998 colon): > 100 µM

Cc1cc(C)nc(NS(=O)(=O)c2ccc(Nc3c4ccc(Cl)cc4nc4c(C(=O)Nc5ccc(S(N)(=O)=O)cc5)cccc34)cc2)n1
TGI (786-0 renal): 28.7 µM | TGI (SN12C renal): 30.2 µM | TGI (HT29 colon): 52.4 µM | TGI (OVCAR-8 ovarian): 37.7 µM | TGI (K-562 leukemia): > 100 µM | TGI (RXF 393 renal): 26.7 µM | TGI (HCC-2998 colon): 30.9 µM

O=C1C2C3C=CC(C2C(=O)N1COP(=O)(O)O)C1C2C(=O)N(COP(=O)(O)O)C(=O)C2C31 (stereo not drawn)
TGI (786-0 renal): > 100 µM | TGI (SN12C renal): > 100 µM | TGI (HT29 colon): > 100 µM | TGI (CAKI-1 renal): > 100 µM | TGI (OVCAR-8 ovarian): > 100 µM | TGI (K-562 leukemia): > 100 µM | TGI (RXF 393 renal): > 100 µM | TGI (HCC-2998 colon): > 100 µM

CC(=Nc1ccccc1)C1=C(O)C(Cc2ccccc2)NC1=O (stereo not drawn)
GI50 (786-0 renal): 0.0586 µM | GI50 (SN12C renal): 0.227 µM | TGI (SN12C renal): > 100 µM | GI50 (DU-145 prostate): 0.133 µM | TGI (DU-145 prostate): 1.29 µM | GI50 (HT29 colon): 0.0331 µM | TGI (HT29 colon): 0.151 µM | GI50 (CAKI-1 renal): 0.0299 µM | TGI (CAKI-1 renal): > 76.4 µM | GI50 (OVCAR-8 ovarian): 0.0945 µM | TGI (OVCAR-8 ovarian): > 100 µM | GI50 (BT-549 breast): 0.0578 µM | TGI (BT-549 breast): 0.501 µM | GI50 (K-562 leukemia): 0.0203 µM | TGI (K-562 leukemia): > 100 µM | GI50 (HCC-2998 colon): 0.0779 µM | TGI (HCC-2998 colon): 0.64 µM

Clc1ccc(C2SCc3nc4ccccc4n32)cc1Cl (stereo not drawn)
TGI (786-0 renal): 27.3 µM | TGI (SN12C renal): 26 µM | TGI (HT29 colon): 29.9 µM | TGI (CAKI-1 renal): 27 µM | TGI (OVCAR-8 ovarian): 26.9 µM | TGI (K-562 leukemia): > 100 µM | TGI (RXF 393 renal): 15.7 µM

C=C(Br)N(CC)CC
TGI (786-0 renal): > 100 µM | TGI (SN12C renal): > 100 µM | TGI (HT29 colon): > 100 µM | TGI (CAKI-1 renal): > 100 µM | TGI (OVCAR-8 ovarian): > 100 µM | TGI (K-562 leukemia): > 100 µM | TGI (RXF 393 renal): > 100 µM | TGI (HCC-2998 colon): > 100 µM

C=C1CCC2C(C)(C)CCC[C@]2(C)[C@H]1CO (stereo partly drawn)
GI50 (786-0 renal): 57.3 µM | TGI (786-0 renal): > 100 µM | GI50 (SN12C renal): 19.8 µM | TGI (SN12C renal): 39.5 µM | GI50 (HT29 colon): 52.7 µM | TGI (HT29 colon): > 100 µM | GI50 (CAKI-1 renal): > 100 µM | TGI (CAKI-1 renal): > 100 µM | GI50 (OVCAR-8 ovarian): 76.1 µM | TGI (OVCAR-8 ovarian): > 100 µM | GI50 (BT-549 breast): 47.9 µM | TGI (BT-549 breast): > 100 µM | GI50 (K-562 leukemia): 73.8 µM | TGI (K-562 leukemia): > 100 µM | GI50 (RXF 393 renal): > 100 µM | TGI (RXF 393 renal): > 100 µM | GI50 (HCC-2998 colon): 13.5 µM | TGI (HCC-2998 colon): 33 µM

CCC1CCc2nc3sc(C(=O)Nc4cccc(F)c4)c(N)c3cc2C1 (stereo not drawn)
GI50 (786-0 renal): 0.701 µM | TGI (786-0 renal): > 100 µM | GI50 (SN12C renal): > 100 µM | TGI (SN12C renal): > 100 µM | GI50 (DU-145 prostate): > 100 µM | TGI (DU-145 prostate): > 100 µM | GI50 (CAKI-1 renal): 0.867 µM | TGI (CAKI-1 renal): > 100 µM | GI50 (OVCAR-8 ovarian): > 100 µM | TGI (OVCAR-8 ovarian): > 100 µM | GI50 (BT-549 breast): > 100 µM | TGI (BT-549 breast): > 100 µM | GI50 (HCC-2998 colon): > 100 µM | TGI (HCC-2998 colon): > 100 µM

COc1ccc2c(c1)n([O-])c1ccccc1[n+]2=O
GI50 (786-0 renal): 43 µM and 21.4 µM | TGI (786-0 renal): > 100 µM | TGI (SN12C renal): > 100 µM | GI50 (DU-145 prostate): 29.3 µM and 12.2 µM | TGI (DU-145 prostate): > 100 µM | TGI (HT29 colon): > 100 µM | GI50 (CAKI-1 renal): 25.3 µM and 8 µM | TGI (CAKI-1 renal): > 100 µM and 27 µM | TGI (OVCAR-8 ovarian): > 100 µM and 55.7 µM | GI50 (K-562 leukemia): 42.6 µM and 15.6 µM | TGI (K-562 leukemia): > 100 µM | GI50 (RXF 393 renal): 25 µM and 10.3 µM | TGI (RXF 393 renal): 81.2 µM and 34.8 µM | TGI (HCC-2998 colon): > 100 µM

S=c1cc(S)sc2c1c(=S)sc1nc3ccccn3c(=S)c12
TGI (786-0 renal): > 100 µM | TGI (SN12C renal): > 100 µM | TGI (HT29 colon): > 100 µM | TGI (CAKI-1 renal): > 100 µM | TGI (OVCAR-8 ovarian): > 100 µM | TGI (K-562 leukemia): > 100 µM | TGI (RXF 393 renal): > 100 µM | TGI (HCC-2998 colon): > 100 µM

O=C(Cn1ccnc1[N+](=O)[O-])c1ccc(F)cc1
TGI (786-0 renal): > 100 µM | TGI (SN12C renal): > 100 µM | TGI (HT29 colon): > 100 µM | TGI (CAKI-1 renal): > 100 µM | TGI (OVCAR-8 ovarian): > 100 µM | TGI (K-562 leukemia): > 100 µM | TGI (RXF 393 renal): > 100 µM

Fc1ccccc1C1CC(c2ccc3ccccc3c2)=Nc2ccccc2S1 (stereo not drawn)
TGI (786-0 renal): > 100 µM | TGI (SN12C renal): > 100 µM | TGI (HT29 colon): > 100 µM | TGI (CAKI-1 renal): > 100 µM | TGI (OVCAR-8 ovarian): > 100 µM | TGI (RXF 393 renal): > 100 µM | TGI (HCC-2998 colon): > 100 µM

CCC(=O)c1c(NOC2OC(COC(C)=O)C(OC(C)=O)C(OC(C)=O)C2OC(C)=O)nc(OC)n(C)c1=O (stereo not drawn)
TGI (786-0 renal): > 100 µM | TGI (SN12C renal): > 100 µM | TGI (HT29 colon): > 100 µM | TGI (OVCAR-8 ovarian): > 100 µM | TGI (K-562 leukemia): > 100 µM | TGI (RXF 393 renal): > 100 µM | TGI (HCC-2998 colon): > 100 µM

Cc1ccc(S(=O)(=O)OCC23CCC(CC2)C2CC23)cc1 (stereo not drawn)
TGI (786-0 renal): > 100 µM | TGI (SN12C renal): > 100 µM | TGI (HT29 colon): > 100 µM | TGI (CAKI-1 renal): > 100 µM | TGI (OVCAR-8 ovarian): > 100 µM | TGI (K-562 leukemia): > 100 µM | TGI (HCC-2998 colon): > 100 µM

Cn1ccnc1C(=O)/C=C/c1ccccc1
GI50 (786-0 renal): 4.34 µM | TGI (786-0 renal): 16.6 µM | GI50 (SN12C renal): 3 µM | TGI (SN12C renal): 17.3 µM | GI50 (DU-145 prostate): 2.8 µM | TGI (DU-145 prostate): 12.7 µM | GI50 (HT29 colon): 3.31 µM | TGI (HT29 colon): 11.2 µM | GI50 (CAKI-1 renal): 3.88 µM | TGI (CAKI-1 renal): 19 µM | GI50 (OVCAR-8 ovarian): 2.59 µM | TGI (OVCAR-8 ovarian): 6.94 µM | GI50 (BT-549 breast): 3.63 µM | TGI (BT-549 breast): 8.48 µM | GI50 (K-562 leukemia): 2.74 µM | TGI (K-562 leukemia): 6.86 µM | GI50 (HCC-2998 colon): 2.36 µM | TGI (HCC-2998 colon): 5.38 µM

O=C(CC1(O)C(=O)Nc2c(Cl)cc(Cl)cc21)c1cccc2ccccc12 (stereo not drawn)
TGI (786-0 renal): 29.7 µM | TGI (SN12C renal): 34 µM | TGI (HT29 colon): 33.8 µM | TGI (CAKI-1 renal): 25.3 µM | TGI (OVCAR-8 ovarian): 32.2 µM | TGI (K-562 leukemia): 36.6 µM | TGI (RXF 393 renal): 37.1 µM
